# Values quoted from earlier work, collected in US9675546B2, “Method of treating atrophic vaginitis” (priority 2006, dated 2017).
# Where two headings read alike, the source gives them in different places.
# Tests used:
# [1] = not given; remark: listed apart in the source
# [2] = test system: breast cancer risk; conditions: progestogen combined with estrogens in HRT users
# [3] = not given; remark: listed apart in the source
# [4] = single oral dose of 20 mg tamoxifen
SMILES,Serum concentration (25 mg progesterone vaginal suppository) [ng/mL],Serum concentration (50 mg progesterone vaginal suppository) [ng/mL],Quality of life/menopausal symptoms: women with significant improvement in symptoms ([1]; MP-containing HRT compared with MPA-containing regimen),Cardiovascular Events ([1]; in vivo),Glucose/Insulin ([1]; in vivo),Liver function ([1]; in vivo),Sleep and Mood ([1]; in vivo),Risk of breast cancer (RR) [2],Time to steady state concentrations after initiation of therapy ([3]; oral),"Average steady state plasma concentration ([3]; oral, once daily for 3 months) [ng/mL]","Average peak plasma concentration [3, 4] [ng/mL]","Time of peak plasma concentration after dosing [3, 4]",Lipid Profile ([1]; in vivo)
"CC(=O)[C@H]1CC[C@H]2[C@@H]3CCC4=CC(=O)CC[C@]4(C)[C@H]3CC[C@]12C [progesterone, pregn-4-ene-3, 20-dione]",7.27,8.84,symptoms in 80%.,MP: has antihypertensive action and can be safely used to treat,MP: augments the pancreatic response to glucose and increases,MP: does not effect liver enzymes or cause livie related side,MP: improves the quality of sleep and has sedative properties.,0.9,,,,,
"CC/C(=C(\c1ccccc1)c1ccc(OCCN(C)C)cc1)c1ccccc1 [tamoxifen, 1-(p-dimethylamino-ethoxphenyl)-2-ethyl-1,2-diphenylethylene]",,,,,,,,,about 4 weeks,122,40,approximately 5 hours,
"CC(=O)O[C@]1(C(C)=O)CC[C@H]2[C@@H]3C[C@H](C)C4=CC(=O)CC[C@]4(C)[C@H]3CC[C@@]21C [MPA, Medroxyprogesterone Acetate]",,,,"MPA: may cause fluid retention and edema, increases incidence",MPA: has been found to cause deterioration of glucose tolerance,MPA: contraindicted in patients with liver dysfunction.,"MPA: can cause insomnia, mental depression, and anxiety.",,,,,,MPA: adversely effects lipid profile and negates the beneficial
